Laboratory results: patent US10722505B2, “Substituted 2,4 diamino-quinoline as new anticancer agents” (GENOSCIENCE PHARMA, priority 2014, dated 2020)
Counter-ions that a name gives are not always drawn.

What was measured:
[1] = tested on: CPP45 liver metastatic CRC patient-derived cells; assay: CellTiter-Glo growth inhibition, liver metastatic CRC patient-derived cells CPP45; assay type: cell-based; conditions: Homo sapiens; CPP45, 72 h
From the text: (§1) Patient derived liver metastasis cells (CPP19, 30, 36 and CPP45—see table 1 for clinical descriptions) were maintained in complete DMEM (Gibco) with 10% FBS. Cells were obtained from biopsies provided by CHU-Caremeau (Nimes, France) within an approved protocol. Signed informed consents were obtained from patients prior to samples acquisition in accordance with all ethical and legal aspects. Tumors were washed, minced into fragments (<2 mm^3) and digested with liberase H (0.26 U/mL, Roche) resuspended in Accumax (Sigma-Aldrich). After 2 hours at 37° C., cell suspension was filtered through a […] to obtain a single cell suspension and plated in DMEM medium, supplemented with FBS, glutamine, antibiotics and non-essential aminoacids. When a monolayer of patient-derived tumor cells was formed, cells were detached using trypsin/EDTA and resuspended in DMEM with 10% FBS (for adherent cells) or defined M11 media (for sphere formation). Cells were cultured in a humidified atmosphere at 37° C. and 5% CO2.
(§2) Cells were plated at 10^4 cells per well in P96 well plates in DMEM with 10% FBS. After 24 hours, cells were treated with compound 2-3 and cell viability was assessed 72 h post-treatment by CellTiter-Glo® Luminescent Cell Viability Assay (Promega). EC50 were calculated using GraphPad Prism Software v6 (Graphpad Software, Inc La Jolla, Calif.). […]

[2] = tested on: LI1098 HCC patient derived cells; assay: CellTiter-Glo growth inhibition, HCC patient-derived cells LI1098; assay type: cell-based, human; conditions: Homo sapiens; LI1098, 72 hours
Experimental: (§3) The patient derived Hepatocellular Carcinoma (HCC) cells were maintained in medium respectively described in table 15 containing 1% penicillin-streptomycin (Life Technologies, 15070-063), with a supplements for primary cell culture (PCS) containing hydrocortisone (50 nM), Epidermal Growth Factor (20 ng/ml), β-fibroblast Growth Factor (10 ng/ml), Heparin (2 μg/ml) ITS liquid media supplement (1×) and non-essential amino acid (NEAA, 0.01 mM, 1×). The primary cell were cultured in a humidified atmosphere (95% relative humidity) with 5% CO2 at 37° C.
(§4) The cell growth inhibition assay was performed as described previously in example 5 using the CellTiter-Glo® luminescent cell viability assay as described by the manufacturer (Promega, Ref G7571). The number of cells seeded per well (in 96-Well Flat Clear Bottom Black Polystyrene TC-Treated Microplates, Cat #3340, Corning®) is described in the table 16. A backseal black sticker (Cat #6005189, Perkin Elmer) was placed to the bottom of each plate before recording CellTiter-Glo® luminescence.
(§5) The experimental data are analyzed using a computer program, Graphpad Prism V 5.0 (GraphPad Software, Inc. La Jolla, Calif.) and EC50 values were determined as the dose of compound required to reduce absorbance values to 50% of the signal obtained for vehicle treated cell cultures and were a mean of at least three independent experiments.

[3] = tested on: CPP30 liver metastatic CRC patient-derived cells; assay: CellTiter-Glo growth inhibition, liver metastatic CRC patient-derived cells CPP30; assay type: cell-based; conditions: Homo sapiens; CPP30, 72 h
From the text: as §1, §2

[4] = tested on: LI0752 HCC patient derived cells; assay: CellTiter-Glo growth inhibition, HCC patient-derived cells LI0752; assay type: cell-based, human; conditions: Homo sapiens; LI0752, 72 hours
Experimental: as §3, §4, §5

MOLM-14 cell line = assay: CellTiter-Glo cell viability / growth inhibition assay, MOLM-14 (Example 5); assay type: cell-based; conditions: Homo sapiens, 72 h
Experimental: All cell lines were maintained in medium containing 1% penicillin-streptomycin (Dutscher, P06-07100) and 10% Fetal Bovine Serum (Gibco, W3387L) except 20% for KG-1 cell line and PBMC, and cultured at 37° C. with 5% CO2.
MOLM-14 cell line was maintained in MEM alpha medium (Gibco, 22561-021).
(§6) Cell viability was measured using the CellTiter-Glo® luminescent cell viability assay as described by the manufacturer (Promega, Ref G7571) using an Infinite F200Pro luminometer (Tecan). Briefly, for adherent cells, cells were plated onto 96-well plates (white with clear bottom) in 90 μL of media per well and were allowed to grow overnight before the assay. For cells growing in suspension, cells were plated onto 96-well plates immediately before the assay.
Compounds were added at different concentrations to each well, and cell cultures were incubated for 72 h. Vehicle (H2O) was used as a control, and all compounds were tested in a constant percentage of H2O. After addition of 100 μL of CellTiter-Glo®, luminescence was measured using an Infinite F200Pro (Tecan). EC50 values were determined as the dose of compound required to reduce luminescent values to 50% of the signal obtained for untreated cell cultures. The experimental data were analyzed using a computer program, Graphpad Prism v5 (GraphPad Software, Inc. La Jolla, Calif.).
All experiments were at least done in duplicate and repeated two independent times.

786-O cell line = assay: CellTiter-Glo growth inhibition assay, 786-O; assay type: cell-based; conditions: Homo sapiens, 786-0, 72 h
Experimental: CAKI-1 and 786-0 cell lines were maintained in RPMI 1640 medium (Dutscher, L0498) containing 1% penicillin-streptomycin (Dutscher, P06-07100) and 10% Fetal Bovine Serum (Gibco, W3387L) and cultured at 37° C. with 5% CO2.
as §6, with “Briefly,” for “Briefly, for adherent cells,”, “assay.” for “assay. For cells growing in suspension, cells were plated onto 96-well plates immediately before the assay.”
Compounds 2-3 and two reference compounds (Sorafenib and Sunitinib) were added at different concentrations to each well, and cell cultures were incubated for 72 h. For compound 2-3 analysis, H2O was used as a negative control (=untreated) and all concentrations were tested in a constant percentage of H2O. For Sorafenib and Sunitinib analysis, DMSO was used as a negative control (=untreated) and all concentrations were tested in a constant percentage of DMSO. 72 h after incubation of compounds, 100 μL of CellTiter-Glo® were added to each well and luminescence was measured using an Infinite F200Pro (Tecan). EC50 values were determined as the dose of compound required to reduce luminescent values to 50% of the signal obtained for untreated cell cultures. The experimental data were analyzed using a computer program, Graphpad Prism v5 (GraphPad Software, Inc. La Jolla, Calif.). All experiments were at least done in triplicate and repeated at least three independent times.

[5] = tested on: LI1646 HCC patient derived cells; assay: CellTiter-Glo growth inhibition, HCC patient-derived cells LI1646; assay type: cell-based, human; conditions: Homo sapiens; LI1646, 72 hours
Experimental: as §3, §4, §5

CC(C)(C)NC1CCN(c2cc(NCc3ccc(Cl)cc3)nc3ccccc23)CC1 [Compound 2-3, 2-(4-chlorobenzylamino)-4-(4-tert-butylaminopiperidin-1-yl)-quinoline hydrochloride salt]
EC50 [1]: 1120 nM
EC50 [2]: 7000 nM
EC50 [3]: 1220 nM
EC50 [4]: 500 nM
viability at 4 µM (MOLM-14 cell line; MOLM-14, 4 μM): 31.8%
viability at 10 µM (MOLM-14 cell line; MOLM-14, 10 μM): 0.3%
EC50 (MOLM-14 cell line; MOLM-14, acute myeloïd leukemia, FLT3-ITD heterozygote+/−): 2200 nM
EC50 (786-O cell line): 2100 nM
EC50 [5]: 1400 nM
